Test results published in patent publication EP0384722A1, “Chemical compositions” (PITMAN-MOORE LIMITED, priority 1989, dated 1990).
Read-outs that look alike come from different tables or passages of the source.

Tests used:
[1] = Comparison of bioavailability of Compound A and Trimethoprim (TMP) administered by i/v injection, cats; format: in vivo; conditions: serum, i/v injection at 2 mg/kg; for concentration at 0 h: 0 hours post inj.; for concentration at 1 h: 1 hours post inj.; for concentration at 3 h: 3 hours post inj.; for concentration at 5 h: 5 hours post inj.; for concentration at 24 h: 24 hours post inj.
Procedure: Two young adult female cats, bodyweight around 3 kg, were given i/v injections at 2 mg/kg of TMP or Compound A, using 3 mg/base ml aqueous solutions.

[2] = Comparison of bioavailability of Compound A and Trimethoprim (TMP) administered by i/v injection, dogs; format: in vivo; conditions: i/v injection at 2 mg/kg; for concentration at 0 h: 0 hours post inj.; for concentration at 1 h: 1 hours post inj.; for concentration at 3 h: 3 hours post inj.; for concentration at 5 h: 5 hours post inj.; for concentration at 7 h: 7 hours post inj.; for concentration at 24 h: 24 hours post inj.; for concentration at 48 h: 48 hours post inj.
Procedure: One male beagle dog, 13.5 kg and one female beagle, 11.1kg, both aged about 18 months, received i/v injections (cephalic vein) of the test compounds at 2mg base/kg, using 15mg base /ml aqueous solutions.

[3] = female, cat, intravenous, 2 mg/kg, cat 3, read-out: Serum conc. of Compound A
[4] = female, cat, intravenous, 2 mg/kg, cat 4, read-out: Serum conc. of Compound A
[5] = female, beagle, serum, intravenous, dog F, read-out: Serum conc. of Compound A
[6] = male, beagle, serum, intravenous, dog M, read-out: Serum conc. of Compound A

Cc1cc(Cc2cnc(N)nc2N)c2cccnc2c1N(C)C [Compound A, 2,4-diamino-5-(8-dimethylamino-7-methyl-5-quinolylmethyl) pyrimidine]
Est.t1/2 ([1]; cats): 2.4 h
half-life ([1]; female, cat, intravenous, cats, read-out: Est.t1/2 (converted)): 2.4 h
concentration at 0 h [1, 3]: 0 ng/mL
concentration at 1 h [1, 3]: 320 ng/mL
concentration at 3 h [1, 3]: 160 ng/mL
concentration at 5 h [1, 3]: 100 ng/mL
concentration at 7 h ([1]; female, cat, intravenous, 2 mg/kg, cat 3, 7 hours post inj., read-out: Serum conc. of Compound A): 72 ng/mL
concentration at 24 h [1, 3]: 0 ng/mL
concentration at 0 h [1, 4]: 0 ng/mL
concentration at 1 h [1, 4]: 310 ng/mL
concentration at 3 h [1, 4]: 140 ng/mL
concentration at 5 h [1, 4]: 86 ng/mL
concentration at 24 h [1, 4]: 0 ng/mL
half-life ([2]; both sexes, beagle, dog, intravenous, dogs, serum, read-out: Est.t1/2 (converted)): 15 h
half-life in comparison with TMP ([2]; dogs): greatly extended half-life in comparison with TMP
concentration at 0 h [2, 5]: 0 ng/mL
concentration at 1 h [2, 5]: 410 ng/mL
concentration at 3 h [2, 5]: 340 ng/mL
concentration at 5 h [2, 5]: 300 ng/mL
concentration at 7 h [2, 5]: 290 ng/mL
concentration at 24 h [2, 5]: 124 ng/mL
concentration at 30 h ([2]; female, beagle, serum, intravenous, dog F, 30 hours post inj., read-out: Serum conc. of Compound A): 100 ng/mL
concentration at 48 h [2, 5]: 46 ng/mL
concentration at 0 h [2, 6]: 0 ng/mL
concentration at 1 h [2, 6]: 240 ng/mL
concentration at 3 h [2, 6]: 270 ng/mL
concentration at 5 h [2, 6]: 260 ng/mL
concentration at 7 h [2, 6]: 250 ng/mL
concentration at 24 h [2, 6]: 110 ng/mL
concentration at 48 h [2, 6]: 39 ng/mL
